Measured values taken from US8575094B2, “Use of type-B lantibiotic-based compounds having antimicrobial activity” (Novacta Biosystems Limited, priority 2007, dated 2013).
In brackets after ≈: the same amount, converted by molar mass. Like-named read-outs stand apart in the source and are kept apart here.

Key:
[1] = test system: Clostridium difficile; assay: microbe, parasite or virus in culture; format: cell-based; conditions: Clostridioides difficile
From the text: Compounds I to VII were screened against twelve clinical isolates of Clostridium difficile.
In addition, compounds L to LIII were screened against […] isolates of Clostridium difficile.

[2] = test system: C. difficile spores; assay: Sporicidal activity: viable counts of C. difficile spores exposed to antibiotics; format: cell-based
From the text: An agent capable of killing, or preventing the successful germination of C. difficile spores would therefore be of considerable interest. To determine the effects of type B lantibiotics on C. difficile spores, suspensions of spores were exposed to antibiotics ([…]) and aliquots were taken at appropriate time points. The spores in each aliquot were filtered off and plated out on to Brazier's agar.

[3] = test system: C. difficile strain VPI 10463; format: in vivo; conditions: hamster, three times daily at 50 mg/kg/day, 5-day dosing period
Experimental: The in vivo efficacy of two type B Lantibiotics in the treatment of C. difficile infections was evaluated in the standard animal model for CDAD: clindamycin-induced cecitis in hamster (FIG. 3). Four groups of six animals were dosed orally with approximately 10^7 cells of C. difficile strain VPI 10463 and 24 hours later with a subcutaneous dose of 10 mg/kg clindamycin phosphate.

[4] = test system: E. coli; assay: microbe, parasite or virus in culture; conditions: Escherichia coli
[5] = test system: E. faecium; assay: microbe, parasite or virus in culture; conditions: Enterococcus faecium
[6] = test system: E. faecalis; assay: microbe, parasite or virus in culture; conditions: Enterococcus faecalis
[7] = test system: Bifidobacterium adolescentis NCTC 11814; assay: microbe, parasite or virus in culture; conditions: NCTC11814, read-out: Minimal Inhibitory Concentration (MIC)
[8] = test system: Bifidobacterium longum NCTC 11818; assay: microbe, parasite or virus in culture; conditions: NCTC11818, read-out: Minimal Inhibitory Concentration (MIC)
[9] = test system: Bacteroides fragilis NCTC 9343; assay: microbe, parasite or virus in culture; conditions: NCTC9343, read-out: Minimal Inhibitory Concentration (MIC)
[10] = test system: Bacteroides thetaiotaomicron NCTC 10582; assay: microbe, parasite or virus in culture; conditions: NCTC10582, read-out: Minimal Inhibitory Concentration (MIC)
[11] = VRE, read-out: Minimal Inhibitory Concentration (MIC)

`CN[C@H](CC(C)C)C(=O)N[C@H]1C(=O)N[C@@H](CC(N)=O)C(=O)N[C@H]2C(=O)N[C@H]3C(=O)N[C@H](C(=O)N[C@H](C(=O)O)c4cc(O)cc(O)c4-c4cc3ccc4O)[C@H](O)c3ccc(c(Cl)c3)Oc3cc2cc(c3O[C@@H]2O[C@H](CO)[C@@H](O)[C@H](O)[C@H]2O[C@H]2C[C@](C)(N)[C@H](O)[C@H](C)O2)Oc2ccc(cc2Cl)[C@H]1O` [Vancomycin] was tested, and the MIC ([1]; read-out: Minimal Inhibitory Concentration (MIC), C. difficile strain 027C) was 1 mg/L (≈ 0.69 µM), the MIC ([1]; read-out: Minimal Inhibitory Concentration (MIC), C. difficile strain 27SM) was 1 mg/L (≈ 0.69 µM) and the MIC ([1]; read-out: Minimal Inhibitory Concentration (MIC), C. difficile strain 19126) was 1 mg/L (≈ 0.69 µM). The MIC ([1]; read-out: Minimal Inhibitory Concentration (MIC), C. difficile strain 37779) was 2 mg/L (≈ 1.38 µM), the MIC ([1]; read-out: Minimal Inhibitory Concentration (MIC), C. difficile strain B32) was 1 mg/L (≈ 0.69 µM) and the MIC ([1]; read-out: Minimal Inhibitory Concentration (MIC), C. difficile strain E4) was 1 mg/L (≈ 0.69 µM). The MIC ([1]; read-out: Minimal Inhibitory Concentration (MIC), C. difficile strain E16) was 0.5 mg/L (≈ 0.345 µM), the MIC ([1]; read-out: Minimal Inhibitory Concentration (MIC), C. difficile strain E101) was 0.5 mg/L (≈ 0.345 µM) and the MIC ([1]; read-out: Minimal Inhibitory Concentration (MIC), C. difficile strain P24) was 0.5 mg/L (≈ 0.345 µM). The MIC ([1]; read-out: Minimal Inhibitory Concentration (MIC), C. difficile strain P49) was 1 mg/L (≈ 0.69 µM), the MIC ([1]; read-out: Minimal Inhibitory Concentration (MIC), C. difficile strain P59) was 1 mg/L (≈ 0.69 µM) and the MIC ([1]; read-out: Minimal Inhibitory Concentration (MIC), C. difficile strain P62) was 1 mg/L (≈ 0.69 µM). For the same molecule, the “Effect on C. difficile spore viability / germination” value ([2]; […]) was “no significant effect on spore viability”, the “Viable counts of C. difficile spores” value ([2]; antibiotic at 100 µg/ml, time 24 h) was 135 and the “Survival of infected animals” value [3] was “survived for the duration of the entire 5-day dosing period”. For the same molecule, the MIC ([4]; ATCC25922, read-out: Minimal Inhibitory Concentration (MIC)) was greater than 64 mg/L, the MIC ([4]; read-out: Minimal Inhibitory Concentration (MIC)) was greater than 64 mg/L and the MIC ([5]; ATCC19579, read-out: Minimal Inhibitory Concentration (MIC)) was 0.5 mg/L (≈ 0.345 µM). For the same molecule, the MIC [5, 11] was greater than 64 mg/L, the MIC ([6]; ATCC29212, read-out: Minimal Inhibitory Concentration (MIC)) was 4 mg/L (≈ 2.76 µM) and the MIC [6, 11] was greater than 64 mg/L. For the same molecule, the MIC [7] was 1 mg/L (≈ 0.69 µM), the MIC [8] was 1 to 2 mg/L (≈ 0.69 to 1.38 µM) and the MIC [9] was 32 mg/L (≈ 22.1 µM). The MIC [10] was 64 mg/L (≈ 44.2 µM).
